Like-named read-outs stand apart in the source and are kept apart here.
How the values were obtained:
[1] = test system: medial meniscal tear in the right knee joint; type: in vivo, Male Lewis rats; conditions: for swelling scores versus vehicle controls: days 24-29, 31, 36-43
Experimental: Male Lewis rats underwent surgery to induce a medial meniscal tear in the right knee joint. Animals were dosed i.a. with FGF-18 (10 μg/joint) on days 21, 28, and 35 and dosed orally with diclofenac (either 1 mg/kg or 3 mg/kg) or vehicle on days 21-23, 28-30, and 35-37, then terminated on day 42 or day 63. Serum was collected and evaluated for alpha 2 macroglobulin (α2MG) levels on days −3, 21, 42, and 63. α2MG is an inflammation serum biomarker. The link between α2MG and inflammation has already been shown (Kuribayashi et al., 2013).

[2] = test system: RA; conditions: human, in vivo; cited from earlier work
[3] = test system: OA symptoms; conditions: cited from earlier work

| Compound | knee caliper measurements ([1]; diclofenac 1 mg/kg oral with FGF-18 i.a., any other time point) | knee caliper measurements ([1]; diclofenac 1 mg/kg oral with FGF-18 i.a., day 42) | swelling scores versus vehicle controls ([1]; diclofenac 1 mg/kg oral with FGF-18 i.a.) | knee caliper measurements ([1]; diclofenac 3 mg/kg oral with FGF-18 i.a., any other time point) | knee caliper measurements ([1]; diclofenac 3 mg/kg oral with FGF-18 i.a., day 42) | swelling scores versus vehicle controls ([1]; diclofenac 3 mg/kg oral with FGF-18 i.a.) | serum α2MG levels, all groups ([1]; diclofenac 1 and 3 mg/kg with FGF-18, day 63) | time for which effects on knee swelling were evident after the final dose of diclofenac ([1]; diclofenac 1 or 3 mg/kg with FGF-18) | joint damage in RA patients [2] | pain in RA patients [2] | pain versus placebo ([3]; anakinra 150 mg) | improvements in OA symptoms compared with placebo ([3]; anakinra therapy) |
| --- | --- | --- | --- | --- | --- | --- | --- | --- | --- | --- | --- | --- |
| O=C(O)Cc1ccccc1Nc1c(Cl)cccc1Cl [diclofenac, 2-(2,6-dichloranilino) phenylacetic acid] | not significantly affected | significantly reduced | significantly reduced | not significantly affected | significantly reduced | significantly reduced | similar | approximately one week |  |  |  |  |
| anakinra: recombinant, nonglycosylated form of human interleukin-1 receptor antagonist (IL-1Ra), SEQ ID NO: 3 |  |  |  |  |  |  |  |  | reduction in frequency and severity of joint damage | pain reduction | tendency toward pain reduction | not significantly associated with improvements |
